Test results published in patent publication US9353090B2, “Heterocyclic carboxylic acids as activators of soluble guanylate cyclase” (Boehringer Ingelheim International GmbH, priority 2014, dated 2016).
Values after ≈ are worked out from the molar mass of the structure shown.

What was measured:
[1] = target: human soluble guanylate cyclase alpha 1 and beta 1 subunits (sGC) (Homo sapiens (Human), UniProt Q02108+Q02153); experiment: sGC cellular activator assay (cGMP, HTRF), in the presence and absence of 50% human serum; type: cell-based; details: CHO cells stably expressing human sGC alpha 1/beta 1, preincubated with 40 microM ODQ; cGMP by HTRF; Table 2 does not state whether with or without 50% human serum
human soluble guanylate cyclase alpha 1 and beta 1 subunits (sGC), sequence (Q02108 whole entry partner): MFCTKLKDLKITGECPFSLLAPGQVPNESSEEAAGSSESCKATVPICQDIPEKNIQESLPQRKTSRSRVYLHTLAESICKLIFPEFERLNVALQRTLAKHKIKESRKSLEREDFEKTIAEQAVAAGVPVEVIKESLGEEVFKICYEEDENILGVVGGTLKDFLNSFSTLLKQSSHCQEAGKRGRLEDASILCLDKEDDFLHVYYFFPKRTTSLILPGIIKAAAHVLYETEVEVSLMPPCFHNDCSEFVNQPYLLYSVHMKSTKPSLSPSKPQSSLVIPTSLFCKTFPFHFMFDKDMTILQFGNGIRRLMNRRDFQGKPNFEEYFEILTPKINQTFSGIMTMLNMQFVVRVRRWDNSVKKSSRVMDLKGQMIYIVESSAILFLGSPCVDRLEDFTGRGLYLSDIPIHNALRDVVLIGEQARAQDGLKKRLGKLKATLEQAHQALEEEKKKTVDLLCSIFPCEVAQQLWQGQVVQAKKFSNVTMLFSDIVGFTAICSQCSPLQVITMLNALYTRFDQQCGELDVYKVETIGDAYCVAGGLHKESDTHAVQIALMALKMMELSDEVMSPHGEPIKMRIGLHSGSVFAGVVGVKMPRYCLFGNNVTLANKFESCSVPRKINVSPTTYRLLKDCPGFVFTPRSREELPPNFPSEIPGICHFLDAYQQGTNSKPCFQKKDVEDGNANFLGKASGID
human soluble guanylate cyclase alpha 1 and beta 1 subunits (sGC), sequence (Q02153 whole entry): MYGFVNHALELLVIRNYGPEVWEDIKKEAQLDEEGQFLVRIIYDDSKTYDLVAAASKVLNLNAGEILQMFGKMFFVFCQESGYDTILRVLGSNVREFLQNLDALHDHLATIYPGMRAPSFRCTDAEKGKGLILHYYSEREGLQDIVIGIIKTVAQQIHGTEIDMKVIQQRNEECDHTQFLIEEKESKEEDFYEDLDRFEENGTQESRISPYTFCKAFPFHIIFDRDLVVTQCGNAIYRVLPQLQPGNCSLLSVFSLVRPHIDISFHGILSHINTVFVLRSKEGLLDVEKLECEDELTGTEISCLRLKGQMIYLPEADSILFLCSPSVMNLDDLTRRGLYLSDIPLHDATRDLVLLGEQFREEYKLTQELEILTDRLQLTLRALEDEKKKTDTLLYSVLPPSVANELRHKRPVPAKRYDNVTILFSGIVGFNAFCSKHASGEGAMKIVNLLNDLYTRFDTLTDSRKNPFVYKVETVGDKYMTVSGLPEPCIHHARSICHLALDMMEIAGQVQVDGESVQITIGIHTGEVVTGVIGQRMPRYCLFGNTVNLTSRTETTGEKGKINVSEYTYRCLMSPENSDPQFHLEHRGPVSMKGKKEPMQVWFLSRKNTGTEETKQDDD
Method in brief: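 Heme-oxidized conditions: ODQ (40 microM, 1 h) pretreatment of CHO cells stably expressing human α1/β1 sGC, in buffer containing 0.1% BSA and IBMX.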

[2] = Human liver microsome (HLM) metabolic stability assay; type: in vitro ADME; details: human liver microsomes
Method in brief: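 Compound at 1 uM incubated with human liver microsomes at 37° C. for 60 min after NADPH addition. Aliquots quenched in cold acetonitrile at 0, 5, 15, 30 and 60 min and analysed by LC/MS/MS. t1/2 from ln(% remaining) vs time slope; CLint, CLh and % Qh derived from it (n=1).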

physchem = details: kinetic from dmso stock
[3] = pH 2.2, aqueous buffer, Solubility (pH 2.2)
[4] = pH 4.5, aqueous buffer, Solubility (pH 4.5)
[5] = pH 6.8, aqueous buffer, Solubility (pH 6.8)

| Structure (SMILES) | EC50 [1] [nM] | Metabolic stability (Qh %), % hepatic blood flow [2] [%] | solubility at 24 h (physchem; [3]) [µg/mL] | solubility at 24 h (physchem; [4]) [µg/mL] | solubility at 24 h (physchem; [5]) [µg/mL] |
| --- | --- | --- | --- | --- | --- |
| COC[C@H]1N(c2cccc(-c3cccc(C)c3OCc3cc(C)c4c(c3)CCN(C3CCOC3)C4)n2)C[C@@H]2C[C@@]21C(=O)O (some centres unmarked) [Compound 50] | 8 | 26 | 120 (≈ 206 µM) | 96 (≈ 164 µM) | 77 (≈ 132 µM) |
| CCc1cc(COc2c(C)cccc2-c2cccc(N3C[C@@H]4C[C@]4(C(=O)O)[C@H]3COC)n2)cc2c1CN(C1COC1)CC2 [Compound 54] | 16 | 39 | 130 (≈ 223 µM) | 90 (≈ 154 µM) | 81 (≈ 139 µM) |
| CCc1cc(COc2c(C)cccc2-c2cccc(N3C[C@@H]4C[C@]4(C(=O)O)[C@H]3COC)n2)cc2c1CN(CC1COCCO1)CC2 (some centres unmarked) [Compound 56] | 26 | <24 | 140 (≈ 223 µM) | 120 (≈ 191 µM) | 88 (≈ 140 µM) |
| COC[C@H]1N(c2cccc(-c3cccc(C)c3OCc3cc(C)c4c(c3F)CCN(C3CCOCC3)C4)n2)C[C@@H]2C[C@@]21C(=O)O [Compound 59] | 8 | <24 | 120 (≈ 195 µM) | 99 (≈ 161 µM) | 74 (≈ 120 µM) |
| COC[C@@H]1N(c2cccc(-c3cccc(C)c3OCc3cc(C)c4c(c3)CCN(C3CCOCC3)C4)n2)C[C@@H]2C[C@@]21C(=O)O [Compound 62] | 465 | <24 | 130 (≈ 217 µM) | 130 (≈ 217 µM) | 130 (≈ 217 µM) |
| CO[C@H]1CN(c2cccc(-c3cccc(C)c3OCc3ccc4c(c3)CCN(C3CCOCC3)C4)n2)CC[C@H]1C(=O)O [Compound 64, (3R,4R)-3-Methoxy-6′-{3-methyl-2-[2-(tetrahydro-pyran-4-yl)-1,2,3,4-tetrahydro-isoquinolin-6-ylmethoxy]-phenyl}-3,4,5,6-tetrahydro-2H-[1,2′]bipyridinyl-4-carboxylic acid] | 36 | 29 | 100 (≈ 175 µM) | 88 (≈ 154 µM) | 69 (≈ 121 µM) |
| CO[C@H]1CN(c2cccc(-c3cccc(C)c3OCc3ccc4c(c3C)CCN(C3COC3)C4)n2)CC[C@H]1C(=O)O [Compound 66] | 20 | 33 | 100 (≈ 179 µM) | 84 (≈ 151 µM) | 64 (≈ 115 µM) |
| CO[C@@H]1CN(c2cccc(-c3cccc(C)c3OCc3ccc4c(c3C)CCN(C3CCOCC3)C4)n2)CC[C@@H]1C(=O)O [Compound 68] | 14 | <24 | 140 (≈ 239 µM) | 120 (≈ 205 µM) | 93 (≈ 159 µM) |
| CO[C@@H]1CN(c2cccc(-c3cccc(C)c3OCc3ccc4c(c3C)CCN(C3COC3)C4)n2)CC[C@@H]1C(=O)O [Compound 69] | 16 | <24 | 130 (≈ 233 µM) | 110 (≈ 197 µM) | 89 (≈ 160 µM) |
| CO[C@H]1CN(c2cccc(-c3cc(C)ccc3OCc3ccc4c(c3)CCN(C3CCOCC3)C4)n2)CC[C@H]1C(=O)O [Compound 70] | 120 | <24 | 130 (≈ 227 µM) | 120 (≈ 210 µM) | 83 (≈ 145 µM) |
| CO[C@H]1CN(c2cccc(-c3cc(C)ccc3OCc3cc(C)c4c(c3)CCN(C3CCOCC3)C4)n2)CC[C@H]1C(=O)O [Compound 72] | 64 | <24 | 120 (≈ 205 µM) | 100 (≈ 171 µM) | 74 (≈ 126 µM) |
| CO[C@@H]1CN(c2cccc(-c3cc(C)ccc3OCc3ccc4c(c3)CCN(C3CCOCC3)C4)n2)CC[C@@H]1C(=O)O [Compound 74] | 20 | <24 | 120 (≈ 210 µM) | 100 (≈ 175 µM) | 80 (≈ 140 µM) |
| CO[C@@H]1CN(c2cccc(-c3cc(C)ccc3OCc3ccc4c(c3C)CCN(C3CCOCC3)C4)n2)CC[C@@H]1C(=O)O [Compound 75] | 15 | <24 | 120 (≈ 205 µM) | 110 (≈ 188 µM) | 74 (≈ 126 µM) |
| CO[C@@H]1CN(c2cccc(-c3cc(C)ccc3OCc3cc(C)c4c(c3)CCN(C3CCOCC3)C4)n2)CC[C@@H]1C(=O)O [Compound 76] | 25 | <24 | 130 (≈ 222 µM) | 110 (≈ 188 µM) | 80 (≈ 137 µM) |

Continued by falling EC50 [1], values first:

| EC50 [1] [nM] | Metabolic stability (Qh %), % hepatic blood flow [2] [%] | solubility at 24 h (physchem; [3]) [µg/mL] | solubility at 24 h (physchem; [4]) [µg/mL] | solubility at 24 h (physchem; [5]) [µg/mL] | Structure (SMILES) |
| --- | --- | --- | --- | --- | --- |
| 110 | <24 | 130 (≈ 222 µM) | 110 (≈ 188 µM) | 81 (≈ 138 µM) | CO[C@H]1CN(c2cccc(-c3cc(C)ccc3OCc3ccc4c(c3C)CCN(C3CCOCC3)C4)n2)CC[C@H]1C(=O)O [Compound 71] |
| 96 | <24 | 130 (≈ 217 µM) | 130 (≈ 217 µM) | 130 (≈ 217 µM) | COC[C@@H]1N(c2cccc(-c3cccc(C)c3OCc3cc(C)c4c(c3)CCN(C3CCOCC3)C4)n2)C[C@H]2C[C@]21C(=O)O [Compound 63] |
| 57 | 28 | 110 (≈ 183 µM) | 93 (≈ 155 µM) | 69 (≈ 115 µM) | CO[C@H]1CN(c2cccc(-c3cc(C)ccc3OCc3ccc4c(c3C)CCN(C3CCOCC3)CC4)n2)CC[C@H]1C(=O)O [Compound 73] |
| 30 | <24 | 110 (≈ 188 µM) | 90 (≈ 154 µM) | 80 (≈ 137 µM) | COC[C@H]1N(c2cccc(-c3cccc(C)c3OCc3cc4c(c(OC)c3)CN(C3COC3)CC4)n2)C[C@@H]2C[C@@]21C(=O)O [Compound 58] |
| 29 | 31 | 130 (≈ 222 µM) | 110 (≈ 188 µM) | 80 (≈ 137 µM) | CO[C@H]1CN(c2cccc(-c3cccc(C)c3OCc3ccc4c(c3C)CCN(C3CCOCC3)C4)n2)CC[C@H]1C(=O)O [Compound 65] |
| 23 | <24 | 100 (≈ 175 µM) | 92 (≈ 161 µM) | 71 (≈ 124 µM) | CO[C@@H]1CN(c2cccc(-c3cccc(C)c3OCc3ccc4c(c3)CCN(C3CCOCC3)C4)n2)CC[C@@H]1C(=O)O [Compound 67] |
| 21 | <24 | 120 (≈ 196 µM) | 99 (≈ 161 µM) | 78 (≈ 127 µM) | COC[C@H]1N(c2cccc(-c3cccc(C)c3OCc3cc4c(c(OC)c3)CN(C3CCOCC3)CC4)n2)C[C@@H]2C[C@@]21C(=O)O [Compound 57] |
| 10 | <24 | 150 (≈ 251 µM) | 110 (≈ 184 µM) | 82 (≈ 137 µM) | CCc1cc(COc2c(C)cccc2-c2cccc(N3C[C@@H]4C[C@]4(C(=O)O)[C@H]3COC)n2)cc2c1CN(C1CCOC1)CC2 (some centres unmarked) [Compound 55] |
| 9 | <24 | 130 (≈ 212 µM) | 110 (≈ 180 µM) | 80 (≈ 131 µM) | CCc1cc(COc2c(C)cccc2-c2cccc(N3C[C@@H]4C[C@]4(C(=O)O)[C@H]3COC)n2)cc2c1CN(C1CCOCC1)CC2 [Compound 53] |
| 8 | <24 | 110 (≈ 180 µM) | 96 (≈ 157 µM) | 74 (≈ 121 µM) | COC[C@H]1N(c2cccc(-c3cccc(C)c3OCc3ccc4c(c3C)CCN(C3CCOCC3)CC4)n2)C[C@@H]2C[C@@]21C(=O)O [Compound 61] |
| 6 | <24 | 120 (≈ 206 µM) | 100 (≈ 171 µM) | 79 (≈ 135 µM) | COC[C@H]1N(c2cccc(-c3cccc(C)c3OCc3ccc4c(c3C)CCN(C3COC3)CC4)n2)C[C@@H]2C[C@@]21C(=O)O [Compound 60] |
